The subject of one data set is MERS-CoV. It counts as cell-based. As to conditions: Vero E6/TMPRSS2 MERS-CoV antiviral effect with P-gp inhibitor.
The target of a further data set is CYP2C19 (Homo sapiens, UniProt P33261). In words: CYP inhibition. It counts as in vitro ADME. The note with it: human; isoform 2C19; In vitro CYP inhibition pooled. The text has this: (§1) Supplement media-1.zip/CYP_Inhibition.csv, table | column: ic50; potency
For the next data set, the target named is CYP2D6 (Homo sapiens, UniProt P10635). The data set can be described thus: CYP inhibition. It counts as in vitro ADME. As to conditions: human; isoform 2D6; In vitro CYP inhibition pooled.
Excerpt: as §1

The next data set concerns the target CYP3A4 (Homo sapiens, UniProt P08684). The data set can be described thus: CYP inhibition. As to conditions: human; isoform 3A4; In vitro CYP inhibition pooled. It counts as in vitro ADME.
Excerpt: as §1

The next data set deals with CYP1A2 (Homo sapiens, UniProt P05177). In words: CYP inhibition. It counts as in vitro ADME. As to conditions: human; isoform 1A2; In vitro CYP inhibition pooled.
Excerpt: as §1

Another data set has as its target CYP2C9 (Homo sapiens, UniProt P11712). In words: CYP inhibition. It counts as in vitro ADME. As to conditions: human; isoform 2C9; In vitro CYP inhibition pooled.
Excerpt: as §1

The target of a further data set is Nsp3-mac1 (Severe acute respiratory syndrome coronavirus 2, UniProt P0DTD1). In words: ADPr hydrolase assay (LC-MS/MS). It counts as biochemical, SARS-CoV-2. As to conditions: Nsp3-mac1 200 nM, αNAD+ 8 μM. As for the experimental part: ADPr hydrolase activity assay was conducted in 96-well plate with pre-dispensed compounds in 8-point dose response starting from 4 μM (control wells were backfilled with DMSO). […] Nsp3-mac1 200 nM in final assay concentration was added to all wells besides “NAD+ alone” well. The plate was centrifuged at 1,500 rpm for 1 min, and then Incubated at room temperature for 15 min. After incubation, αNAD+ in final concentration of 8 μM were added to each well, and the plate was centrifuged again for 1 min. Then, the plate was incubated under shaking at room temperature for 2.45 h, followed by freezing at −80°C until LC-MS/MS analysis.
A 30-μl sample aliquot was mixed with 90 μl of methanol and 1μl of 50 μM 15N5-AMP (an internal standard). The mix was shaken for 10 min, then centrifuged (~21,000 g) for 5 min to precipitate the protein. […]
Mass detection was carried out using electrospray ionization in the positive mode. […] Analytes were detected using multiple reaction monitoring (MRM, m/z) with the following precursor and fragment masses at selected collision energy (eV, indicated in brackets): 560 > 136 (34) and 560 > 348 ([16]) for ADPR, 664 > 524 ([15]) and 664 > 541.7 ([15]) for αNAD+, 353.1 > 97 ([28]) and 353.1 > 141 ([20]) for […] (IS) m/z. […]

A further data set is described as follows: in vitro. Details: Cytotoxicity in iPSC-derived pneumocytes, CC50. As to conditions: human, ipsc-derived pneumocytes; ASAP-0008327-001=ASAP-0011176-001; read-out: 50.0.
Data set [1] can be described thus: iPSC pneumocytes cytotoxicity. It counts as cell-based. The note with it: protocol iPSC pneumocytes cytotoxicity. The source says:
Supplement media-1.zip/Cytotoxicity.csv, table | column: cc10; cc50; perc_min_measured; perc_max_measured

In the next data set the test system is kinase panel. The data set can be described thus: Eurofins kinase panel. It counts as biochemical. The note with it: test compound 10 uM.

CYP2D6, sequence (P10635 whole entry, canonical isoform): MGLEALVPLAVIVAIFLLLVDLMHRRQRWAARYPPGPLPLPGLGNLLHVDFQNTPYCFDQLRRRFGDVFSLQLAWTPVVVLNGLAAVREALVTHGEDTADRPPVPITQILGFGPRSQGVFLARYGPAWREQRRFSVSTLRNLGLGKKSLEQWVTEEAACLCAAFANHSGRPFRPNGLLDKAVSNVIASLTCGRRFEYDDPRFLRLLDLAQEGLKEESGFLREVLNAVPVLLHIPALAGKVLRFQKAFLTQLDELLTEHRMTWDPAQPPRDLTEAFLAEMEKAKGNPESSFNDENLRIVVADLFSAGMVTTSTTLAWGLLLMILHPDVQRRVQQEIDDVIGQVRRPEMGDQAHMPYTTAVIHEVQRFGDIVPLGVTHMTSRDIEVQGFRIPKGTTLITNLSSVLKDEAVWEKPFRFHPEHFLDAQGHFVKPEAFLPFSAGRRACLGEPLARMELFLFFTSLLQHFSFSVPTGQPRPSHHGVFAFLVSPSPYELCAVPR
CYP3A4, sequence (P08684 2-503): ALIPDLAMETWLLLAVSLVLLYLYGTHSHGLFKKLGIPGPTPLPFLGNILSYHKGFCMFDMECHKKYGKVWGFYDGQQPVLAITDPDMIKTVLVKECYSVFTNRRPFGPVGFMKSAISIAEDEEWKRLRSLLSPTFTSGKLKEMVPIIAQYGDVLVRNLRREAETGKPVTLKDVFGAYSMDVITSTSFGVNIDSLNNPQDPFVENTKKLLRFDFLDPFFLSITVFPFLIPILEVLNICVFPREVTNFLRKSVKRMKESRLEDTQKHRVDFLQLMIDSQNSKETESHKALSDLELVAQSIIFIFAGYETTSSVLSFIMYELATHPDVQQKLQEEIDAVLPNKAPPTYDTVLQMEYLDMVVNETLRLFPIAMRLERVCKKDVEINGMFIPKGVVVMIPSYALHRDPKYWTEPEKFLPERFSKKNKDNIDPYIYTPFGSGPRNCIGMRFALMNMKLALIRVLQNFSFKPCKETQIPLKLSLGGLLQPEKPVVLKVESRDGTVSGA
CYP2C19, sequence (P33261 whole entry, canonical isoform): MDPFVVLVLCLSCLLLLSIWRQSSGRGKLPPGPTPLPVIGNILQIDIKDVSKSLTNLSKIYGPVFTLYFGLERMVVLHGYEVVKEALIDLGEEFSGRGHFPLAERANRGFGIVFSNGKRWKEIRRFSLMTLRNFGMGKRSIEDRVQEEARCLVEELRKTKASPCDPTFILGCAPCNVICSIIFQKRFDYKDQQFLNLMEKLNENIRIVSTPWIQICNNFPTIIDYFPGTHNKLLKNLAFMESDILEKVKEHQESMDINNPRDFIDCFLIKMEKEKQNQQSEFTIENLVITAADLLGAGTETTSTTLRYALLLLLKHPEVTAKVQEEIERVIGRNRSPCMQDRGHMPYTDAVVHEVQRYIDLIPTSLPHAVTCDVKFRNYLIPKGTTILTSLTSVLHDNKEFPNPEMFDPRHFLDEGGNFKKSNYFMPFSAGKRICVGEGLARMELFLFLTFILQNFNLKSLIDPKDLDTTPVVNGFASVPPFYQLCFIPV
CYP2C9, sequence (P11712 whole entry, canonical isoform): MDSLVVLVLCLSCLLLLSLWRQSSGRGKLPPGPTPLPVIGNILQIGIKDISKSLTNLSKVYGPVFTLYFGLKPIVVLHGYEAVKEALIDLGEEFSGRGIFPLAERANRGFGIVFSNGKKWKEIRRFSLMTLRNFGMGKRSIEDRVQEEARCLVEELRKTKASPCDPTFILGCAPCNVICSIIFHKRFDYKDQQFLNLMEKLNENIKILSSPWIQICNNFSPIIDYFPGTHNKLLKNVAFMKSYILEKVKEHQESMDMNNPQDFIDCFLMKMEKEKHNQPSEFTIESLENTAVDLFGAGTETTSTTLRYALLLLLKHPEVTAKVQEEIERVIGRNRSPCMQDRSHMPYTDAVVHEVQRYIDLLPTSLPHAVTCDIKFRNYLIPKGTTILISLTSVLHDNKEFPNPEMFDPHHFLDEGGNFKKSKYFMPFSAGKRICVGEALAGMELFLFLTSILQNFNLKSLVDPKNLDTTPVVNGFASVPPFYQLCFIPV
CYP1A2, sequence (P05177 2-516): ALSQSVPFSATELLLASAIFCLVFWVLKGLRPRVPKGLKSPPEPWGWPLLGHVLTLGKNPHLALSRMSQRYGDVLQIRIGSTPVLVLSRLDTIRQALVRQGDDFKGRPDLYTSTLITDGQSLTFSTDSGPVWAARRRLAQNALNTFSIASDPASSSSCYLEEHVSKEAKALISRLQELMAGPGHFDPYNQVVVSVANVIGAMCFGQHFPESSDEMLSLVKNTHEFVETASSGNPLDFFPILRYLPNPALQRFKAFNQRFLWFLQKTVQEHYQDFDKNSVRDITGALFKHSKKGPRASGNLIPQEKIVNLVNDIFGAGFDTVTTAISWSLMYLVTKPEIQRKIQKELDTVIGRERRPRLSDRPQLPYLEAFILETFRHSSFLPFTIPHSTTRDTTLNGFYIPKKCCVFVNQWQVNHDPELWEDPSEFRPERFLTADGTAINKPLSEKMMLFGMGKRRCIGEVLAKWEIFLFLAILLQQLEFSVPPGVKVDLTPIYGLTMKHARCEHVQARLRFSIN

On to `Cn1ncc(-c2cc3c(N[C@@H](c4ccc5c(n4)OCCO5)C(C)(C)C)ncnc3[nH]2)c1C#N` [ASAP-0011221], for which, in the data set on MERS-CoV, the EC50 was greater than 5 µM and the EC90 was greater than 5 µM. Also, the perc_max_measured in the data set on MERS-CoV (maximum measured response) came to 128.492%. The compound also registered a perc_min_measured in the data set on MERS-CoV (minimum measured response) of 99.797%.

Take `CC(C)C(Nc1ncnc2[nH]c(C(=O)NC3CCN(C)C3)cc12)c1ccc2c(c1)S(=O)(=O)CCC2` (stereo not drawn) [ASAP-0011198]: the IC50 against CYP2C19 was greater than 50 µM; against CYP2D6, greater than 50 µM; against CYP3A4 it was greater than 50 µM; at CYP1A2, greater than 50 µM; at CYP2C9, greater than 50 µM; against Nsp3-mac1 it was 0.42 µM.

For `Cc1nn(C)cc1-c1cc2c(NC(c3ccc4c(c3)S(=O)(=O)CCC4)C(C)C)ncnc2[nH]1` (stereo not drawn) [ASAP-0011446], the IC50 against Nsp3-mac1 turned out to be 0.28 µM.

In the case of `CNCc1cc(-c2cc3c(N[C@@H](c4ccc5c(c4)S(=O)(=O)CCC5)C(C)C)ncnc3[nH]2)co1` [ASAP-0011176], in the data set “in vitro”, the CC50 is greater than 50 µM.

Turning to `CC(C)C(Nc1ncnc2[nH]ccc12)c1ccc2c(c1)S(=O)(=O)CCC2` (stereo not drawn) [ASAP-0008327], the CC50 in data set [1] is greater than 50 µM. Besides, the perc_activity is listed as 93% in the data set on kinase panel (kinase ALK(h), ATP 200 uM); 94% in the data set with kinase panel (kinase AMPKα1(h), ATP 45 uM); 108% in the data set with kinase panel (kinase ASK1(h), ATP 200 uM); 93% with kinase panel (kinase Abl(h), ATP 45 uM); 57% in the data set with kinase panel (kinase Aurora-A(h), ATP 15 uM).
